In PubChem BioAssay (NCI):
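All cell lines were grown in 96-well plates and treated with compound for 48 hours. Here, GI50 denotes the concentration required for 50% inhibition of growth. TGI marks complete inhibition of growth.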

What was measured:
Experiment in all cases: NCI tumour cell line growth inhibition, 48 h
[1] = test system: SN12C renal
[2] = test system: SF-268 CNS
[3] = test system: 786-0 renal
[4] = test system: OVCAR-5 ovarian
[5] = test system: HOP-62 NSCLC
[6] = test system: MDA-MB-435
[7] = test system: HCT-15 colon
[8] = test system: HS 578T breast
[9] = test system: BT-549 breast
[10] = test system: MDA-MB-468 breast
[11] = test system: NCI-H522 lung
[12] = test system: DU-145 prostate
[13] = test system: K-562 leukemia
[14] = test system: SK-OV-3 ovarian
[15] = test system: HL-60(TB) leukemia
[16] = test system: NCI-H460 lung
[17] = test system: UACC-257 melanoma
[18] = test system: MDA-MB-231 breast
[19] = test system: SNB-75 CNS
[20] = test system: HCC-2998 colon
[21] = test system: KM12 colon
[22] = test system: IGROV1 ovarian
[23] = test system: HCT-116 colon
[24] = test system: CCRF-CEM leukemia
[25] = test system: OVCAR-4 ovarian
[26] = test system: SK-MEL-5 melanoma
[27] = test system: OVCAR-8 ovarian
[28] = test system: SW-620 colon
[29] = test system: MOLT-4 leukemia
[30] = test system: SR leukemia
[31] = test system: NCI-H23 lung
[32] = test system: OVCAR-3 ovarian
[33] = test system: HT29 colon
[34] = test system: SF-539 CNS
[35] = test system: CAKI-1 renal
[36] = test system: NCI-H226 lung
[37] = test system: HOP-92 NSCLC
[38] = test system: MCF7 breast
[39] = test system: NCI/ADR-RES ovarian
[40] = test system: A549 NSCLC
[41] = test system: LOX IMVI melanoma
[42] = test system: RXF 393 renal
[43] = test system: PC-3 prostate
[44] = test system: UACC-62 melanoma
[45] = test system: SF-295 CNS
[46] = test system: UO-31 renal
[47] = test system: U251 CNS
[48] = test system: A498 renal
[49] = test system: SK-MEL-28 melanoma
[50] = test system: MALME-3M melanoma
[51] = test system: M14 melanoma
[52] = test system: TK-10 renal
[53] = test system: COLO 205 colon

CC[C@@]1(O)C(=O)OCc2c1cc1n(c2=O)Cc2c-1nc1cc(F)c(C)c3c1c2[C@@H](N)CC3
GI50 [1]: < 10 nM | TGI [1]: 145 nM | GI50 [2]: < 10 nM | TGI [2]: > 100000 nM | GI50 [3]: < 10 nM | TGI [3]: < 37 nM | GI50 [4]: < 12.4 nM | TGI [4]: 801 nM | GI50 [5]: < 10 nM | TGI [5]: < 49.4 nM | GI50 [6]: < 10 nM | TGI [6]: 625 nM | GI50 [7]: 14.6 nM | TGI [7]: 4890 nM | GI50 [8]: 221 nM | TGI [8]: > 100000 nM | GI50 [9]: < 10 nM | TGI [9]: 111 nM | GI50 [10]: < 10 nM | TGI [10]: < 10 nM | GI50 [11]: < 10 nM | TGI [11]: 37.9 nM | GI50 [12]: < 10 nM | TGI [12]: > 100000 nM | GI50 [13]: < 10 nM | TGI [13]: > 100000 nM | GI50 [14]: < 10 nM | TGI [14]: 135 nM | GI50 [15]: < 10 nM | GI50 [16]: < 10 nM | TGI [16]: 434 nM | GI50 [17]: 10.3 nM | TGI [17]: 166 nM | GI50 [18]: 28.5 nM | TGI [18]: 2220 nM | GI50 [19]: < 10 nM | TGI [19]: 175 nM | GI50 [20]: 12.9 nM | TGI [20]: 129 nM | GI50 [21]: 18.4 nM | TGI [21]: > 100000 nM | GI50 [22]: 26.1 nM | TGI [22]: 1150 nM | GI50 [23]: < 10 nM | TGI [23]: 11500 nM | GI50 [24]: < 10 nM | GI50 [25]: 32.5 nM | TGI [25]: > 100000 nM | GI50 [26]: < 10 nM | TGI [26]: < 10 nM | GI50 [27]: < 10 nM | TGI [27]: 116 nM | GI50 [28]: < 10 nM | TGI [28]: 13100 nM | GI50 [29]: < 10 nM | GI50 [30]: < 10 nM | TGI [30]: > 100000 nM | GI50 [31]: < 10 nM | TGI [31]: < 10 nM | GI50 [32]: 36.8 nM | TGI [32]: 635 nM | GI50 [33]: < 10 nM | TGI [33]: 1040 nM | GI50 [34]: < 10 nM | TGI [34]: < 10 nM | GI50 [35]: < 10 nM | TGI [35]: 74.1 nM | GI50 [36]: < 10 nM | TGI [36]: < 19.7 nM | GI50 [37]: < 10 nM | TGI [37]: 192 nM | GI50 [38]: < 10 nM | TGI [38]: > 100000 nM | GI50 [39]: < 10 nM | TGI [39]: 21.3 nM | GI50 [40]: < 10 nM | TGI [40]: 456 nM | GI50 [41]: < 10 nM | TGI [41]: 10.1 nM | GI50 [42]: < 10 nM | TGI [42]: < 13.5 nM | GI50 [43]: 20.6 nM | TGI [43]: > 100000 nM | GI50 [44]: < 10 nM | TGI [44]: 14.6 nM | GI50 [45]: < 10 nM | TGI [45]: 42.5 nM | GI50 [46]: < 10 nM | TGI [46]: 48.1 nM | GI50 [47]: < 10 nM | TGI [47]: 102 nM | GI50 [48]: < 10.7 nM | TGI [48]: 187 nM | GI50 [49]: 111 nM | TGI [49]: > 100000 nM | GI50 [50]: 11 nM | TGI [50]: 247 nM | GI50 [51]: < 10 nM | TGI [51]: 27.9 nM | GI50 [52]: 61.1 nM | TGI [52]: 3180 nM | GI50 [53]: 39.3 nM | TGI [53]: 298 nM
